# From ChEMBL document CHEMBL4507261, “Data for DCP probe A-192621” (2021)
# Calls of active or inactive are those of the source. No cut-off for these calls is given here.
# Legend:
# [1] = target: Histamine H1 receptor (Homo sapiens) (UniProt P35367); conditions: Compound concentration 10.0 uM
# [2] = target: GABA-A receptor; anion channel (Rattus norvegicus) (UniProt O09028+P15431+P18506+P18508+P19969+P20236+P23574+P23576+P28471+P28473+P30191+P62813+P63079+P63138+Q91ZM7+Q9ES14); conditions: Compound concentration 10.0 uM
# [3] = target: Muscarinic acetylcholine receptor M3 (Homo sapiens) (UniProt P20309); conditions: Compound concentration 10.0 uM
# Chain of Muscarinic acetylcholine receptor M3 (Homo sapiens) (P20309 whole entry, looked up): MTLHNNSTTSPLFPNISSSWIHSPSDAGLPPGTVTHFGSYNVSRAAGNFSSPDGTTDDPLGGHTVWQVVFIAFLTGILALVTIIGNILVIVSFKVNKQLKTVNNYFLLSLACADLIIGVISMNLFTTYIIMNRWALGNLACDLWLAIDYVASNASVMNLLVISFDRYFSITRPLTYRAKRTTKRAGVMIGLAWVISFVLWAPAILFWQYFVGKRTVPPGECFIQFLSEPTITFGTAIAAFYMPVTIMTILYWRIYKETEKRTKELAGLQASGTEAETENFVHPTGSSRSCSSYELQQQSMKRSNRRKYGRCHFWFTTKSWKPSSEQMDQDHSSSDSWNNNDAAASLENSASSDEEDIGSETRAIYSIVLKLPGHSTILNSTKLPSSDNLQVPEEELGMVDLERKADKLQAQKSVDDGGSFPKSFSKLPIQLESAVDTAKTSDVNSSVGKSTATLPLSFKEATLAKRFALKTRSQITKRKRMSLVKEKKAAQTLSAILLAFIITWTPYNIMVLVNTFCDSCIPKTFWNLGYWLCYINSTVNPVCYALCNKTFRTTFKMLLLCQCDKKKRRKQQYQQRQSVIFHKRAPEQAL
# [4] = target: T1, Muscarinic acetylcholine receptor M2 (Homo sapiens) (UniProt P08172); conditions: Compound concentration 10.0 uM
# T1 sequence (whole entry): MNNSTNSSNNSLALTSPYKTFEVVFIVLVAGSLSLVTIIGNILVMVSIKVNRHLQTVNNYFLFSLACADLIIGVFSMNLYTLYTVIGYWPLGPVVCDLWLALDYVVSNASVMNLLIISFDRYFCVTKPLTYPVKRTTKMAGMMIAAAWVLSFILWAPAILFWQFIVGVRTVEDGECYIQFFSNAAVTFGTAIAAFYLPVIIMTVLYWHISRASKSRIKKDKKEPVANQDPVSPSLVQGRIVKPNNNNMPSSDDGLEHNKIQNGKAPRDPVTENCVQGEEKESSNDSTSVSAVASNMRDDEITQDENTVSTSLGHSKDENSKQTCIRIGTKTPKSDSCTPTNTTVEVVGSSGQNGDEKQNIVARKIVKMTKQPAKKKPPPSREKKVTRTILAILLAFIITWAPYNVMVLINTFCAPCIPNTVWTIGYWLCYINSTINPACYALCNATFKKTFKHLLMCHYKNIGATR
# [5] = target: 5-hydroxytryptamine receptor 2A (Homo sapiens) (UniProt P28223); conditions: Compound concentration 10.0 uM
# Chain of 5-hydroxytryptamine receptor 2A (Homo sapiens) (P28223 whole entry): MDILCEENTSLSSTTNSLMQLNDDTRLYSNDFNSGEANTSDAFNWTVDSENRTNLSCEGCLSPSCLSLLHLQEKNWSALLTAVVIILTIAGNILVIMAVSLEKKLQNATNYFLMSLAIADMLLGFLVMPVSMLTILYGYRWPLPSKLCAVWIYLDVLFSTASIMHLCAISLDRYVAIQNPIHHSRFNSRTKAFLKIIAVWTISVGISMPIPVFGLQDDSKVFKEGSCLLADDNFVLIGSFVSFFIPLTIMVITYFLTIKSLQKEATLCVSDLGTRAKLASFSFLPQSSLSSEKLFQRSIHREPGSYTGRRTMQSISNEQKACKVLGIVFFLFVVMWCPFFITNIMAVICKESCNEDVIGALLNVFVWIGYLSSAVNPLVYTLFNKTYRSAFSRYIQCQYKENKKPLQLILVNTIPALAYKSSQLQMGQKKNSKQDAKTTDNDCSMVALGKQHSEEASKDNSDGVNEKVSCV
# [6] = target: T2, 5-hydroxytryptamine receptor 3A (Homo sapiens) (UniProt P46098); conditions: Compound concentration 10.0 uM
# T2 sequence (whole entry): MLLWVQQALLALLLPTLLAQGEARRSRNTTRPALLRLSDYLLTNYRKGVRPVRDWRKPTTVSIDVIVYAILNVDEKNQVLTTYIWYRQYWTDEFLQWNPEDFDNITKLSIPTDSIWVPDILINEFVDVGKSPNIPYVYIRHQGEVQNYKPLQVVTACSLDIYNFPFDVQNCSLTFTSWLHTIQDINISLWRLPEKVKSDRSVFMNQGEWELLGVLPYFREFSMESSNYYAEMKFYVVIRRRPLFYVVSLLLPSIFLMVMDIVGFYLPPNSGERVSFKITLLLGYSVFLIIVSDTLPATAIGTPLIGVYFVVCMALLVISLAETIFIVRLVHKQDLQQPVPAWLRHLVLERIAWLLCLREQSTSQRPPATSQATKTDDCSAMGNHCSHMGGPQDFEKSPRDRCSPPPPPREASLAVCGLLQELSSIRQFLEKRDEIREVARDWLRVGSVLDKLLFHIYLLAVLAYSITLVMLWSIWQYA
# [7] = target: Alpha-2C adrenergic receptor (Homo sapiens) (UniProt P18825); conditions: Compound concentration 10.0 uM
# Chain of Alpha-2C adrenergic receptor (Homo sapiens) (P18825 whole entry): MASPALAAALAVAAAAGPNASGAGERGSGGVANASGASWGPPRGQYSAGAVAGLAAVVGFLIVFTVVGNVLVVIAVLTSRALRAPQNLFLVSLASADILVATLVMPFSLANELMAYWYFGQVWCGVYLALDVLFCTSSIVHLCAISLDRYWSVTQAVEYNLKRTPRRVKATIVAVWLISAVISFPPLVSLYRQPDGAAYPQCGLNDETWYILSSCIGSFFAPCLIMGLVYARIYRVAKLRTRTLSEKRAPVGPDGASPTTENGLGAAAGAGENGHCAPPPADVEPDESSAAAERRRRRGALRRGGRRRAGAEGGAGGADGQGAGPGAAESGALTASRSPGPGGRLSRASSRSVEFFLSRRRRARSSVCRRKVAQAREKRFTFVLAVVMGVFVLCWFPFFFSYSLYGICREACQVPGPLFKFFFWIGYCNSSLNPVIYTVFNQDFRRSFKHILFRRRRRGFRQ
# [8] = target: T3, Muscarinic acetylcholine receptor M4 (Homo sapiens) (UniProt P08173); conditions: Compound concentration 10.0 uM
# T3 sequence (whole entry): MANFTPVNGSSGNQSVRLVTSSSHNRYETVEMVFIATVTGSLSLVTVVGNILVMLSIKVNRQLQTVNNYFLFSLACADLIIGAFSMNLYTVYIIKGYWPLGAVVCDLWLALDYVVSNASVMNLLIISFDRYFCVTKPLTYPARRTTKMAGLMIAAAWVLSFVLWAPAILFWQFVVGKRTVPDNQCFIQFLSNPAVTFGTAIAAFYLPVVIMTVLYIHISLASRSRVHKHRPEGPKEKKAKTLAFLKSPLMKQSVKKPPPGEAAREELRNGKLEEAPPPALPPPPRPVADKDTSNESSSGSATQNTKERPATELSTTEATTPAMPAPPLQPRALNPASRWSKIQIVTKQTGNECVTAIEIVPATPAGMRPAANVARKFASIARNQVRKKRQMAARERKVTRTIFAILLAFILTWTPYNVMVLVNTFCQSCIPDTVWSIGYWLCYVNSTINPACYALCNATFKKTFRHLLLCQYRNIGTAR
# [9] = target: Histamine H4 receptor (Homo sapiens) (UniProt Q9H3N8); conditions: Compound concentration 10.0 uM
# Chain of Histamine H4 receptor (Homo sapiens) (Q9H3N8 whole entry): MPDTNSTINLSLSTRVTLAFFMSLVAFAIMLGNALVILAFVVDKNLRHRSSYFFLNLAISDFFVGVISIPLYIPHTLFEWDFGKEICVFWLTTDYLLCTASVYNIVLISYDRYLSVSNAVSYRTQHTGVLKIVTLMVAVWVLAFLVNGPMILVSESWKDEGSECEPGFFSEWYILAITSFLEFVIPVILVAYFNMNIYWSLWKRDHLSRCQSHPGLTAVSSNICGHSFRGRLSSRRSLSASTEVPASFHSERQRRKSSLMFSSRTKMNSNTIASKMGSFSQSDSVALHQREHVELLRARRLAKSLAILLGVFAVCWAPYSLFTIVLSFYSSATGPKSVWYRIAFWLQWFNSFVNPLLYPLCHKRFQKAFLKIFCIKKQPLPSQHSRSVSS
# [10] = target: 5-hydroxytryptamine receptor 2B (Homo sapiens) (UniProt P41595); conditions: Compound concentration 10.0 uM
# [11] = target: D(1B) dopamine receptor (Homo sapiens) (UniProt P21918); conditions: Compound concentration 10.0 uM
# Chain of D(1B) dopamine receptor (Homo sapiens) (P21918 whole entry): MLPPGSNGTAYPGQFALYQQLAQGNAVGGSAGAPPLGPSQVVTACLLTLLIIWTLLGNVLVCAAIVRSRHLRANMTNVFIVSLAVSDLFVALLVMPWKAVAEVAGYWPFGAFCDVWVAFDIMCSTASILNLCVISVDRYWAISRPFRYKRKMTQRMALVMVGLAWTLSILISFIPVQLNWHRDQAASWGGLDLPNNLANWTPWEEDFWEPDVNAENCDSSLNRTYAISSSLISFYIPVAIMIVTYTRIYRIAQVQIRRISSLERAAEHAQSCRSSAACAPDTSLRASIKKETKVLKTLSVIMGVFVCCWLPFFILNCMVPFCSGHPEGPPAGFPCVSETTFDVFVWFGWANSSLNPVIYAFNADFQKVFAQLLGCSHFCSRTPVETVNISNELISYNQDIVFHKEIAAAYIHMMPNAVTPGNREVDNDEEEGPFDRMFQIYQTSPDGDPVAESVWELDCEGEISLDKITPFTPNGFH
# [12] = target: Delta-type opioid receptor (Homo sapiens) (UniProt P41143); conditions: Compound concentration 10.0 uM
# [13] = target: D(4) dopamine receptor (Homo sapiens) (UniProt P21917); conditions: Compound concentration 10.0 uM
# Chain of D(4) dopamine receptor (Homo sapiens) (P21917 whole entry): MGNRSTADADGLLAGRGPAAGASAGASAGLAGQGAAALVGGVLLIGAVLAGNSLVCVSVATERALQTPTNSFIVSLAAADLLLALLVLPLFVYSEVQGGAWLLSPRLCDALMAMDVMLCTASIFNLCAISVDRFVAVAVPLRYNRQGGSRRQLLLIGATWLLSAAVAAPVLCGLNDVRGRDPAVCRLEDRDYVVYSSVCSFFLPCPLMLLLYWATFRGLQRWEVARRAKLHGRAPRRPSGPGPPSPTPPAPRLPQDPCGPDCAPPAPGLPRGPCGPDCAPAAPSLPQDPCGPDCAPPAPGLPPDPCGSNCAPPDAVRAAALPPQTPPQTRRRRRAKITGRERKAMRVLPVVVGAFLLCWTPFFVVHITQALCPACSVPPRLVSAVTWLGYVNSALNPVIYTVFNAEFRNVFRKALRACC
# [14] = target: 5-hydroxytryptamine receptor 5A (Homo sapiens) (UniProt P47898); conditions: Compound concentration 10.0 uM
# Chain of 5-hydroxytryptamine receptor 5A (Homo sapiens) (P47898 whole entry): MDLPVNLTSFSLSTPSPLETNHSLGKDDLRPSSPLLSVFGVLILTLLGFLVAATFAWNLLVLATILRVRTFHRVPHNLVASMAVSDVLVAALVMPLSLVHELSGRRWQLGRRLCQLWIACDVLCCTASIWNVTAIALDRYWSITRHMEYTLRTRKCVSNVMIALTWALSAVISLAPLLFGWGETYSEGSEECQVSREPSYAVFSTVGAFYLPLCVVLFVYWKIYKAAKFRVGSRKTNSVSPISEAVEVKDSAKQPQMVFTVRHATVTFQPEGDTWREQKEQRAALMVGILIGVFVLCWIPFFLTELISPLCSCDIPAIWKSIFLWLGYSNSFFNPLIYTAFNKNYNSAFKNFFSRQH
# [15] = target: 5-hydroxytryptamine receptor 7 (Homo sapiens) (UniProt P34969); conditions: Compound concentration 10.0 uM
# Chain of 5-hydroxytryptamine receptor 7 (Homo sapiens) (P34969 whole entry): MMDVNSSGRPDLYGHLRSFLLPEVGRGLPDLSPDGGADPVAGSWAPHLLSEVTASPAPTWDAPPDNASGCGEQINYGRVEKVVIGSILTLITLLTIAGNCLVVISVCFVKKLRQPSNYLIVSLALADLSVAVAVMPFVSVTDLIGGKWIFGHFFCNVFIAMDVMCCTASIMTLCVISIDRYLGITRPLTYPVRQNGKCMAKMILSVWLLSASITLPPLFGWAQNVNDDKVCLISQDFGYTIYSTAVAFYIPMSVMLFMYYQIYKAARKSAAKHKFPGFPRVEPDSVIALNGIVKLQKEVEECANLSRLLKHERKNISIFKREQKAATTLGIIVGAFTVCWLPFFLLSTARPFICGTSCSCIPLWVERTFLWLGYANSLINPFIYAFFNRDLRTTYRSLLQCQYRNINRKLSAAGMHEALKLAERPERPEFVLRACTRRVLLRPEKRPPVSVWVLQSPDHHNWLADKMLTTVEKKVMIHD
# [16] = target: 5-hydroxytryptamine receptor 1B (Homo sapiens) (UniProt P28222); conditions: Compound concentration 10.0 uM
# Chain of 5-hydroxytryptamine receptor 1B (Homo sapiens) (P28222 whole entry): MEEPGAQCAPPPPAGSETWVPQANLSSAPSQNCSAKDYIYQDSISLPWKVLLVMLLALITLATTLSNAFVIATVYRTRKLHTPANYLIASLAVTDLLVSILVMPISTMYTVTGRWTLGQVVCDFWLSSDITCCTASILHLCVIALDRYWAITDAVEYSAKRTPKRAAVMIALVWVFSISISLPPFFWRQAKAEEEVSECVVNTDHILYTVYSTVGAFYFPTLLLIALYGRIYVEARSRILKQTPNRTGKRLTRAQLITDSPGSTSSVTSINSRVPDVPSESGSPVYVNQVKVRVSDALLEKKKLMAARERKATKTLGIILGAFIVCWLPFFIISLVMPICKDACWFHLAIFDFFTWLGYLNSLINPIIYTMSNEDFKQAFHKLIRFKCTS
# [17] = target: Endothelin receptor type B (Homo sapiens, UniProt P24530); assay: EDNRB- dependent phosphatidylinositol hydrolysis assay; type: functional
# Chain of Endothelin receptor type B (P24530 whole entry): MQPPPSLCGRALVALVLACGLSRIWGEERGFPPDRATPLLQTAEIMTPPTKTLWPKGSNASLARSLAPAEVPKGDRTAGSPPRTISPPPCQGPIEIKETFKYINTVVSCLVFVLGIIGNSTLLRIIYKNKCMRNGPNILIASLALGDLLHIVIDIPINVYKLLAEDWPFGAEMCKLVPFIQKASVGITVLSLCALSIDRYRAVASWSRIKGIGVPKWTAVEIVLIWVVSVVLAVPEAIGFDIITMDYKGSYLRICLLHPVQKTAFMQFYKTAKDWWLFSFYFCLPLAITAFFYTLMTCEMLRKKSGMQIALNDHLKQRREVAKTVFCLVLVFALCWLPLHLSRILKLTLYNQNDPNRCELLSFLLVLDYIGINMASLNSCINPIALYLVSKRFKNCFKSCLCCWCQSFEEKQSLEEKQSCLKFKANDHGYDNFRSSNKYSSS
# [18] = target: T4, Endothelin-1 receptor (Homo sapiens, UniProt P25101); assay: EDNRA- dependent phosphatidylinositol hydrolysis assay; type: functional
# T4 sequence (P25101 whole entry): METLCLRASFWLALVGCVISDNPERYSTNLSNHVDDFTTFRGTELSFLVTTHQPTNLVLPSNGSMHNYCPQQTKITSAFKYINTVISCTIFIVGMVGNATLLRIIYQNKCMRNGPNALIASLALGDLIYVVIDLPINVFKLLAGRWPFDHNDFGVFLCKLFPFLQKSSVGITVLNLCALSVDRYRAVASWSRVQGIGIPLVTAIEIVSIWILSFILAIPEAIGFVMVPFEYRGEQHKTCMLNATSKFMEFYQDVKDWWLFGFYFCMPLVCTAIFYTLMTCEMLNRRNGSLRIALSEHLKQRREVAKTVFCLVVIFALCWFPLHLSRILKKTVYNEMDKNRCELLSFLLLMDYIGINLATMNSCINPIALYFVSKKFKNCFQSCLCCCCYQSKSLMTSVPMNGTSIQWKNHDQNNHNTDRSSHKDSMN
# [19] = target: Kappa-type opioid receptor (Homo sapiens) (UniProt P41145); conditions: Compound concentration 10.0 uM
# Chain of Kappa-type opioid receptor (Homo sapiens) (P41145 whole entry): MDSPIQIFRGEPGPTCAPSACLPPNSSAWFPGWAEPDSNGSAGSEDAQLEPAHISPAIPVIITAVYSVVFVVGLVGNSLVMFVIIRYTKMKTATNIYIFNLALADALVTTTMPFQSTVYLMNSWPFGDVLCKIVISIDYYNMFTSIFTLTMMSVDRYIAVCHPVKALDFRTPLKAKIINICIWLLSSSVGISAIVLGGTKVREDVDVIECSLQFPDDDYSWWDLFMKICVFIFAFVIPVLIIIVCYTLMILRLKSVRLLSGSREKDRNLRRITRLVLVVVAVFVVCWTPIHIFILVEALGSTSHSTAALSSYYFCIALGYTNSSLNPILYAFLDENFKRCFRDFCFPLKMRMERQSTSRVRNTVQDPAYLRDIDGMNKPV
# [20] = organism: Rattus norvegicus; conditions: Compound concentration 10.0 uM
smiles,measurement,setting,value
CCCOc1ccc([C@H]2[C@H](C(=O)O)[C@@H](c3ccc4c(c3)OCO4)CN2CC(=O)Nc2c(CC)cccc2CC)cc1 [A-192621],inhibition,[1],36%
same,inhibition,[2],19.6%
same,inhibition,[3],-5.06%
same,inhibition,[4],-5.3%
same,inhibition,[5],4.84%
same,inhibition,[6],-5.22%
same,inhibition,[7],0.5%
same,inhibition,[8],12.5%
same,inhibition,[9],7.94%
same,inhibition,[10],12.8%
same,inhibition,[11],11%
same,inhibition,[12],9.89%
same,inhibition,[13],-3.59%
same,inhibition,[14],-0.22%
same,inhibition,[15],-3.72%
same,inhibition,[16],4.31%
same,IC50,[17],0.0008 µM (active)
same,IC50,[18],> 1 µM (not active)
same,inhibition,[19],35.3%
same,inhibition,[20],16.5%
